{"source": "patent US20250281478A1", "about": "“METHODS FOR PREVENTING OR TREATING KIDNEY DISEASES” (JEAMOON BEIJING CO., LTD., priority 2022, published 2025)", "key": {"[1]": {"test_system": "mice with adenine-induced renal failure", "experiment": "Blood urea nitrogen (BUN) in adenine-induced renal failure mice", "type": "in vivo, C57BL/6N mice", "conditions": "for BUN after modeling for 3 weeks (after drug administration for 2 weeks) / BUN after modeling for 1 week (before drug administration): mean ± SD", "experimental": "(§1) • a) Control group: Fed with adenine-free feed; other procedures were the same as those in the model group. • b) Model group: Fed with feed containing 0.25% adenine for modelling. • c) LY-10 mg/kg group: Model+LY2922470 (10 mg/kg, p.o., QD). • d) LY-30 mg/kg group: Model+LY2922470 (30 mg/kg, p.o., QD). • e) LY-60 mg/kg group: Model+LY2922470 (60 mg/kg, p.o., QD). • f) TAK875 group: Model+TAK875 (30 mg/kg, p.o., QD).\n(§2) Except for the control group, all other mice were fed with a diet containing 0.25% adenine for modelling. The control group was fed with a normal diet. All mice were allowed free access to food. One week after modeling, each group of mice was administered the respective treatment via oral gavage once daily in the afternoon for two consecutive weeks. The control group and the model group received vehicle under a same condition. The adenine-containing diet was continuously administered for modeling throughout the treatment period until the end of the experiment. The physical condition of the mice was monitored, and body weight was measured and recorded weekly. Blood samples were collected from the orbital venous plexus at 1 week (post-modeling) and 3 weeks (after 2 weeks of treatment). Serum was separated for the measurement of serum creatinine (CRE) and blood urea nitrogen (BUN). At the end of the two-week treatment, renal function of each group was assessed using a TGFR renal function monitoring and smart analysis system. After testing, tissues were collected from the mice to confirm the efficacy of the treatment.\n(§3) Statistical analyses were performed using GraphPad Prism 8.0 software. Continuous data of each group were expressed as mean+SD. One-way ANOVA was used for multi-group comparisons, and Student's t-test was used for comparisons between two groups. A p-value<0.05 was considered statistically significant. For categorical data, chi-square tests were used to compare between groups, with p<0.05 indicating a statistically significant difference.\nMice were fed a 0.25% adenine-containing diet. After one week, the mice were treated with LY2922470 or TAK875. During the treatment period, the adenine-containing diet was continued for modeling. After three weeks of adenine feeding (i.e., two weeks of drug administration), blood samples were collected from the mice, and serum was isolated for CREA and BUN measurements."}, "[2]": {"test_system": "high glucose-induced HK-2 cells", "experiment": "RT-PCR of fibrosis markers in high glucose-induced HK-2 cells", "type": "cell-based, human", "conditions": "25 mM D-glucose + LY2922470 10, 50, 500 nM, 48 hours, FIG. 8", "experimental": "• Group A: Control • Group B: HG (25 mM) • Group C: HG (25 mM)+LY (10 nM) • Group D: HG (25 mM)+LY (50 nM) • Group E: HG (25 mM)+LY (500 nM)\n(§4) HK-2 cells were cultured in MEM supplemented with 10% FBS and 1% penicillin-streptomycin solution. The HK-2 cells were taken from liquid nitrogen and quickly thawed in a 37° C. water bath, gently agitated to thaw the cryopreservation medium. After thawing, the cell suspension was transferred to a centrifuge tube containing 3 mL of culture medium and centrifuged at 1000 rpm for 5 min at room temperature to collect the cells. The supernatant was discarded. The cell pellet was resuspended in complete medium (10% FBS) and seeded into culture dishes. The cells were gently pipetted to ensure uniform distribution and incubated at 37° C. with 5% CO2 and saturated humidity.\nOnce cells reached 40%-50% confluency, they were treated according to the grouping described above: Group A received normal HK-2 culture; Group B was treated with 25 mM D-glucose (high glucose); Group C was treated with 25 mM D-glucose and 10 nM LY2922470; Group D was treated with 25 mM D-glucose and 50 nM LY2922470; and Group E was treated with 25 mM D-glucose and 500 nM LY2922470. After 48 hours of culture, samples were collected from each group for RT-PCR analysis."}, "[3]": {"test_system": "TGF-β1-induced HK-2 cells", "experiment": "RT-PCR of fibrosis markers in TGF-β1-induced HK-2 cells", "type": "cell-based, human", "conditions": "10 ng/ml TGF-β1 + LY2922470 10, 50, 500 nM, 48 hours, FIG. 7", "experimental": "• Group A: Control • Group B: TGF-β1 (10 ng/ml) • Group C: TGF-β1 (10 ng/ml)+LY (10 nM) • Group D: TGF-β1 (10 ng/ml)+LY (50 nM) • Group E: TGF-1 (10 ng/ml)+LY (500 nM)\nas §4\nHK-2 cells in a logarithmic growth phase and with good viability were seeded into 24-well plates at a density of 1×10^5 cells/well. Once the cells reached 40-50% confluence, treatments were applied according to the grouping described above: Group A: HK-2 cells were cultured normally; Group B was treated with 10 ng/ml TGF-β1; Group C was treated with 10 ng/ml TGF-β1 and 10 nM LY2922470; Group D was treated with 10 ng/ml TGF-β1 and 50 nM LY2922470; and Group E was treated with 10 ng/ML TGF-β1 and 500 nM LY2922470. […]"}, "[4]": {"test_system": "mice with sustained adenine-induced renal failure", "experiment": "Glomerular filtration rate in mice with sustained adenine-induced renal failure (TGFR system)", "type": "in vivo, C57BL/6N mice", "conditions": "3 weeks continuous 0.25% adenine diet, FIG. 4", "experimental": "as §1, §2, §3\nOne week later, LY2922470 or TAK875 was administrated for treatment. […]"}, "[5]": {"test_system": "mice with adenine-induced renal failure", "experiment": "Renal fibrosis by Masson's trichrome staining in adenine-induced renal failure mice", "type": "in vivo, C57BL/6N mice", "conditions": "LY2922470 30 mg/kg/day orally for 2 weeks; 3 weeks of modeling; FIG. 6", "experimental": "Mice were modeled and administered drugs as described in Example 3. After two weeks of drug administration, the mice were euthanized, and their kidneys were fixed, sectioned, stained with Masson's trichrome, and analyzed.\nWhole-slide scanning was performed using a fully automated digital pathology scanner KF-PRO-120 from Ningbo Jiangfeng Bioinformatics Technology Co., Ltd. Masson-stained images were analyzed using the Area Quantification module in HALO software. The blue staining of collagen fibers was used as the unified criterion for positivity. The images were analyzed, and the percentage of blue-stained collagen fibers in the tissue was calculated.\nStatistical analysis was conducted using GraphPad Prism 8.0. Continuous data for each group were expressed as mean+SD. One-way ANOVA was used for multi-group comparisons, and Student's t-test was used for comparisons between two groups. A p-value<0.05 was considered statistically significant. For categorical data, chi-square tests were used for comparisons among groups, and a p-value<0.05 was considered statistically significant."}, "[6]": {"conditions": "LY2922470 30 mg/kg p.o. QD for 2 weeks"}}}
{"smiles": "CC#C[C@@H](CC(=O)O)c1ccc(OCc2ccc(CN3CCCc4cccc(OC)c43)s2)cc1", "note": "[LY2922470]", "values": [{"measurement": "BUN level compared with the model group", "setting": "[1]; [6]", "result": "statistically significant reduction"}, {"measurement": "BUN after modeling for 3 weeks (after drug administration for 2 weeks)", "setting": "[1]; LY2922470 30 mg/kg p.o. QD", "result": "15.15 ± 4.53", "unit": "mmol/L"}, {"measurement": "BUN after modeling for 3 weeks (after drug administration for 2 weeks)", "setting": "[1]; LY2922470 60 mg/kg p.o. QD", "result": "13.85 ± 1.33", "unit": "mmol/L"}, {"measurement": "Serum BUN level compared with the model group", "setting": "[1]; LY2922470 at different doses p.o. QD for 2 weeks", "result": "reduced"}, {"measurement": "BUN after modeling for 1 week (before drug administration)", "setting": "[1]; baseline of the LY2922470 10 mg/kg group", "result": "10.34 ± 3.55", "unit": "mmol/L"}, {"measurement": "BUN after modeling for 1 week (before drug administration)", "setting": "[1]; baseline of the LY2922470 30 mg/kg group", "result": "10.25 ± 3.42", "unit": "mmol/L"}, {"measurement": "BUN after modeling for 1 week (before drug administration)", "setting": "[1]; baseline of the LY2922470 60 mg/kg group", "result": "10.40 ± 3.83", "unit": "mmol/L"}, {"measurement": "Expression level of Fibronectin (RT-PCR) compared to the high-glucose group", "setting": "[2]", "result": "reduced"}, {"measurement": "Expression level of α-SMA (RT-PCR) compared to the high-glucose group", "setting": "[2]", "result": "reduced"}, {"measurement": "Expression level of Fibronectin (RT-PCR) compared to the TGF-β1 group", "setting": "[3]", "result": "dose-dependent decrease"}, {"measurement": "Expression level of α-SMA (RT-PCR) compared to the TGF-β1 group", "setting": "[3]", "result": "dose-dependent decrease"}, {"measurement": "Renal function (GFR) improvement among the doses", "setting": "[4]; [6]", "result": "most significant improvement"}, {"measurement": "Renal function (GFR) compared with the model group", "setting": "[4]; LY2922470 at different doses (10, 30, 60 mg/kg p.o. QD) for 2 weeks", "result": "improved"}, {"measurement": "Collagen deposition (Masson staining)", "setting": "[5]", "result": "decreased"}, {"measurement": "Degree of renal fibrosis (Masson staining)", "setting": "[5]", "result": "alleviated"}, {"measurement": "Extracellular matrix (ECM) accumulation", "setting": "[5]", "result": "inhibited"}]}
